We go through 1 compound from patent US20120184514A1, “VITAMIN D COMPOUNDS AND METHODS FOR PREPARING SAME” (Vitamin Derivatives Inc., priority 2009, published 2012).

This data set is described as follows: Thermogravimetric analysis of a 1α-hydroxy-vitamin D3 sample. Format: physicochemical. As to conditions: heated under nitrogen at 10 °C/min. Here is the method:
Thermogravimetric analysis of a 1α-hydroxy-vitamin D3 sample was performed using a TA Instruments 2950 thermogravimetric analyzer (available from TA Instruments of New Castle, Del.). The sample was placed in an aluminum sample pan and inserted into the thermogravimetric furnace. The furnace was heated under nitrogen at a rate of 10 ° C./min, from room temperature to a final temperature of 350° C. Nickel and Alumel™ (available from Hoskins Manufacturing Company, Novi, Mich.) were used as calibration standards. […] (See FIG. 6).

`C=C1/C(=C\C=C2/CCC[C@]3(C)[C@@H]([C@H](C)CCCC(C)C)CC[C@@H]23)C[C@@H](O)C[C@@H]1O` [1α-hydroxy-vitamin D3, 1α, 3β,5Z,7E-9,10-secocholesta-5,7,10(19)-triene-1,3-diol]: the “weight loss (thermogravimetric thermogram)” value (from 25° C. to 150° C.) turned out to be 0.09%. Also, the “decomposition temperature (thermogravimetric thermogram)” value (room temperature to 350° C.) is > 200 °C.
